The target of the experiment is c-Met (Homo sapiens, UniProt P08581). The experiment is described as follows: Ki determination for the inhibition of c-Met (coupled enzyme system). The settings on record: coupled enzyme assay; 200 μM ATP, 10 μM polyGluTyr, 80 nM c-Met, 30° C. The class given is biochemical. The protocol: Ki Determination for the Inhibition of c-Met
Compounds were screened for their ability to inhibit c-Met kinase activity using a standard coupled enzyme system (Fox et al., Protein Sci. 1998, 7, 2249). Reactions were carried out in a solution containing 100 mM HEPES (pH 7.5), 10 mM MgCl2, 25 mM NaCl, 300 μM NADH, 1 mM DTT, and 1.5% DMSO. Final substrate concentrations in the assay were 200 μM ATP (Sigma Chemicals, St Louis, Mo.) and 10 μM polyGluTyr (Sigma Chemical Company, St. Louis). Reactions were carried out at 30° C. and 80 nM c-Met. Final concentrations of the components of the coupled enzyme system were 2.5 mM phosphoenolpyruvate, 300 μM NADH, 30 μg/ml pyruvate kinase and 10 μg/ml lactate dehydrogenase.
An assay stock buffer solution was prepared containing all of the reagents listed above with the exception of ATP and a test compound of the present invention. The assay stock buffer solution (175 μl) was incubated in a 96 well plate with 5 μl of the test compound of the present invention at final concentrations spanning 0.006 μM to 12.5 μM at 30° C. for 10 minutes. Typically, a 12-point titration was conducted by preparing serial dilutions (from 10 mM compound stocks) with DMSO of the test compounds of the present invention in daughter plates. The reaction was initiated by the addition of 20 μl of ATP (final concentration 200 μM). Rates of reaction were obtained using a Molecular Devices Spectramax plate reader (Sunnyvale, Calif.) over 10 minutes at 30° C. The Ki values were determined from the rate data as a function of inhibitor concentration.

The structures appear in SMILES notation. Some results are limits rather than exact numbers.

Results on twelve molecules are retold here after patent US7314885B2, “Pyrrole compounds useful as kinase inhibitors” (Vertex Pharmaceuticals Incorporated, priority 2003, dated 2008).

By Ki is commonly meant a measure of affinity in units of concentration, obtained from inhibition or displacement.

Chain of c-Met (P08581 25-1390): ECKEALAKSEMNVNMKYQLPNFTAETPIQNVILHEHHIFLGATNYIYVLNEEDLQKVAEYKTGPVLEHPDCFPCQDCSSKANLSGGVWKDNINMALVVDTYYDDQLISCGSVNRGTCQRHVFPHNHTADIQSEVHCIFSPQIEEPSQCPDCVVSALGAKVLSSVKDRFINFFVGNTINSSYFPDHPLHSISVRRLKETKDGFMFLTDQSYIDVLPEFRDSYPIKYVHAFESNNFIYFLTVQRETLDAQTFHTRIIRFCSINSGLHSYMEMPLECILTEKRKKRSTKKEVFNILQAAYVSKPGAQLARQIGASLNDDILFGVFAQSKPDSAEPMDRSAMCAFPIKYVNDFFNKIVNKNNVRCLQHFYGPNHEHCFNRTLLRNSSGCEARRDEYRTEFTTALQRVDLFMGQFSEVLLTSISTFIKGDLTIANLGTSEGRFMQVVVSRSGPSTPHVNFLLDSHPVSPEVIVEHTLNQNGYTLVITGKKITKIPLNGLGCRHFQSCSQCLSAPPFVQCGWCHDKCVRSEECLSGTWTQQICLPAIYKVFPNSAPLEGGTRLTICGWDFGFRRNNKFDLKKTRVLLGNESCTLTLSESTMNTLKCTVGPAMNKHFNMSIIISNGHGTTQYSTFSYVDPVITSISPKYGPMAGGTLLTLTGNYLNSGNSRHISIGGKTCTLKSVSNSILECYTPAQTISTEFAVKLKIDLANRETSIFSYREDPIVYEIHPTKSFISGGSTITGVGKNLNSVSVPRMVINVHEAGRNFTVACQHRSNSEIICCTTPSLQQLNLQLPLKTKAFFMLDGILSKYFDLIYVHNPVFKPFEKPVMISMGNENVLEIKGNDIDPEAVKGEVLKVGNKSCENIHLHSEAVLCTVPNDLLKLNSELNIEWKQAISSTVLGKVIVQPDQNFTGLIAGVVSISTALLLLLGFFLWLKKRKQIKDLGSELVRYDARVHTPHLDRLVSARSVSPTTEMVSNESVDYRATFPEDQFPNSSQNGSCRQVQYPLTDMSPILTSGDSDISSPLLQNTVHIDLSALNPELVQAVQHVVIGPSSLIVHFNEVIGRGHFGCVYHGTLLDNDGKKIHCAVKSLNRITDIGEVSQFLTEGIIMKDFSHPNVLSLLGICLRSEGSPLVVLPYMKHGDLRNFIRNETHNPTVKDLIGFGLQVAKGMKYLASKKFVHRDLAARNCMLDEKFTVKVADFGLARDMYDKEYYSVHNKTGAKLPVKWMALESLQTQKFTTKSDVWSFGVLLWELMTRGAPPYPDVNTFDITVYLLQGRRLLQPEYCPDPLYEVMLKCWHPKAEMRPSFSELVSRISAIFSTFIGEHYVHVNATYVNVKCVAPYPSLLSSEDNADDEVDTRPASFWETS

On to `O=C(NC[C@@H]1CCCO1)c1cc(-c2cncn2-c2cccc(F)c2F)c[nH]1` (stereo in doubt) [Compound I-16, 4-[3-(2,3-Difluoro-phenyl)-3H-imidazol-4-yl]-1H-pyrrole-2-carboxylic acid (tetrahydro-furan-2-ylmethyl)-amide], for which the Ki was 1 to 10 µM.

On to `O=C(NC[C@@H]1CCCO1)c1cc(-c2nnnn2-c2cccc(F)c2F)c[nH]1` (stereo in doubt) [Compound I-24, 4-[1-(2,3-Difluoro-phenyl)-1H-tetrazol-5-yl]-1H-pyrrole-2-carboxylic acid (tetrahydro-furan-2-ylmethyl)-amide], for which the inhibition constant (Ki) was in the range of 1 to 10 µM.

Take `O=C(NC[C@@H]1CCCO1)c1cc(-c2cnoc2-c2cccc(F)c2F)c[nH]1` [Compound I-4, 4-[5-(2,3-Difluoro-phenyl)-isoxazol-4-yl]-1H-pyrrole-2-carboxylic acid (S-tetrahydro-furan-2-ylmethyl)-amide]: the inhibitory constant (Ki) lay within 1 to 10 µM.

In the case of `O=C(NC[C@@H]1CCCO1)c1cc(-n2cncc2-c2cccc(F)c2F)c[nH]1` [Compound I-10, 4-[5-(2,3-Difluoro-phenyl)-imidazol-1-yl]-1H-pyrrole-2-carboxylic acid (S-tetrahydro-furan-2-ylmethyl)-amide], the inhibition constant Ki lay within 1 to 10 µM.

Molecule `O=C(c1cc(-c2nncn2-c2cccc(F)c2F)c[nH]1)N1CC=CC1` [Compound I-37, (4-(4-(2,3-difluorophenyl)-4H-1,2,4-triazol-3-yl)-1H-pyrrol-2-yl)(2H-pyrrol-1(5H)-yl)methanone] came in with an inhibitory constant (Ki) above 10 µM.

`O=C(c1cc(-n2nnnc2-c2cccc(F)c2F)c[nH]1)N1CC=CC1` [Compound I-38, (4-(5-(2,3-difluorophenyl)-1H-tetrazol-1-yl)-1H-pyrrol-2-yl)(2H-pyrrol-1(5H)-yl)methanone] had a Ki of 1 to 10 µM.

`O=C(NC[C@@H]1CCCO1)c1cc(-c2nncn2-c2cccc(Cl)c2Cl)c[nH]1` [Compound I-39]: the inhibition constant (Ki) lay within 1 to 10 µM.

In turn, `O=C(c1cc(-c2nncn2-c2cccc(Cl)c2Cl)c[nH]1)N1CC=CC1` [Compound I-40] returned an inhibition constant (Ki) of 1 to 10 µM.

In turn, `O=C(NCCCn1ccnc1)c1cc(-c2nncn2-c2cccc(Cl)c2Cl)c[nH]1` [Compound I-41] came in with an inhibition constant (Ki) of 1 to 10 µM.

Take `O=C(NCCCn1ccnc1)c1cc(-n2cnnc2-c2cccc(F)c2F)c[nH]1` [Compound I-44, N-(3-(1H-imidazol-1-yl)propyl)-4-(3-(2,3-difluorophenyl)-4H-1,2,4-triazol-4-yl)-1H-pyrrole-2-carboxamide]: the inhibition constant Ki is above 10 µM.

In turn, `O=C(NC[C@@H]1CCCO1)c1cc(-c2sncc2-c2cccc(F)c2F)c[nH]1` [Compound I-46, 4-(4-(2,3-difluorophenyl)isothiazol-5-yl)-N-(((S)-tetrahydrofuran-2-yl)methyl)-1H-pyrrrole-2-carboxamide] returned a Ki of 1 to 10 µM.

`O=C(c1cc(-c2[nH]nnc2-c2cccc(F)c2F)c[nH]1)N1CCCC1` [Compound I-47] came in with an inhibitory constant (Ki) of 1 to 10 µM.
